Assay results taken from patent US12084467B2, “Therapeutic compounds for HIV virus infection” (Gilead Sciences, Inc., priority 2021, dated 2024).
In brackets after ≈: the same amount, converted by molar mass.

Key:
[1] = physchem; settings: 25 °C, fassif, thermodynamic from solid
[2] = Kinetic solubility analysis (CLND: total chemiluminescent nitrogen determination); settings: 1.0% DMSO, 24-hour incubation at ambient temperature, maximum theoretical concentration 100 μM; for pH 2 solubility: 0.1N HCl; for pH 7 solubility: 1×PBS buffer (pH 7.4)
[3] = Oral bioavailability PK in dog; assay type: in vivo; settings: Beagle dog, oral gavage, solution vehicle 5% ethanol, 20% propylene glycol, 75% water; based on observed exposure of Intermediate 5 in plasma
Experimental: Oral dose (suspension and solution vehicle) of the compound being tested was administered via gavage in rat (Sprague Dawley) and dog (Beagle). Serial blood samples were collected via jugular vein into pre-chilled K2EDTA with 2 mM dichlorvos (final concentration) for up to 168 h. Whole blood was processed into plasma by centrifuge (3000 rpm for 10 minutes at 5C) within 30 minutes of collection.
Plasma samples were analyzed by direct protein precipitation with acetonitrile and further dilution with water before injecting onto Sciex API 5500 LC/MS/MS system for analysis.
AUC was calculated as Area under the plasma concentration vs. time curve from 0 h to infinity.
The solution vehicles used were 1) 5% ethanol, 20% propylene glycol, and 75% water and 2) 30% 10 mM HCl, 5% ethanol, 45% polyethylene glycol 300, and 20% propylene glycol.

[4] = Solubility in simulated intestinal fluids (FaSSIF / FeSSIF); settings: 25 °C, thermodynamic from solid
[5] = fasted state simulated intestinal fluid (FaSSIF), fassif
[6] = fed state simulated intestinal fluid (FeSSIF), fessif

Row | SMILES | solubility [1] [µg/mL] | pH 2 solubility [2] [μM] | pH 7 solubility [2] [μM] | Dog F % (solution) [3] [%] | solubility [4, 5] [µg/mL] | solubility [4, 6] [µg/mL]
1 | CC(C)(C#Cc1ccc(-c2ccc(Cl)c3c(N(C(=O)N4CCC[C@H]4C(=O)OCOP(=O)(O)O)S(C)(=O)=O)nn(CC(F)(F)F)c23)c([C@H](Cc2cc(F)cc(F)c2)NC(=O)Cn2nc(C(F)(F)F)c3c2C(F)(F)[C@@H]2C[C@H]32)n1)S(C)(=O)=O [Compound 27, (phosphonooxy)methyl ((4-chloro-7-(2-((S)-1-(2-((3bS,4aR)-5,5-difluoro-3-(trifluoromethyl)-3b,4,4a,5-tetrahydro-1H-cyclopropa[3,4]cyclopenta[1,2-c]pyrazol-1-yl)acetamido)-2-(3,5-difluorophenyl)ethyl)-6-(3-methyl-3-(methylsulfonyl)but-1-yn-1-yl)pyridin-3-yl)-1-(2,2,2-trifluoroethyl)-1H-indazol-3-yl)(methylsulfonyl)carbamoyl)-L-prolinate] | 512 (≈ 420 µM) | 2 | 68 | – | – | –
2 | CC(C)(C#Cc1ccc(-c2ccc(Cl)c3c(N(C(=O)[C@H]4C[C@H]4C(=O)OCOP(=O)(O)O)S(C)(=O)=O)nn(CC(F)(F)F)c23)c([C@H](Cc2cc(F)cc(F)c2)NC(=O)Cn2nc(C(F)(F)F)c3c2C(F)(F)[C@@H]2C[C@H]32)n1)S(C)(=O)=O [Compound 12, (phosphonooxy)methyl (1R,2S)-2-((4-chloro-7-(2-((S)-1-(2-((3bS,4aR)-5,5-difluoro-3-(trifluoromethyl)-3b,4,4a,5-tetrahydro-1H-cyclopropa[3,4]cyclopenta[1,2-c]pyrazol-1-yl)acetamido)-2-(3,5-difluorophenyl)ethyl)-6-(3-methyl-3-(methylsulfonyl)but-1-yn-1-yl)pyridin-3-yl)-1-(2,2,2-trifluoroethyl)-1H-indazol-3-yl)(methylsulfonyl)carbamoyl)cyclopropane-1-carboxylate] | 2100 (≈ 1760 µM) | 1 | 71 | – | – | –
3 | CC(C)(C#Cc1ccc(-c2ccc(Cl)c3c(NS(C)(=O)=O)nn(CC(F)(F)F)c23)c([C@H](Cc2cc(F)cc(F)c2)NC(=O)Cn2nc(C(F)(F)F)c3c2C(F)(F)[C@@H]2C[C@H]32)n1)S(C)(=O)=O [Intermediate 5, N—((S)-1-(3-(4-chloro-3-(methylsulfonamido)-1-(2,2,2-trifluoroethyl)-1H-indazol-7-yl)-6-(3-methyl-3-(methylsulfonyl)but-1-yn-1-yl)pyridin-2-yl)-2-(3,5-difluorophenyl)ethyl)-2-((3bS,4aR)-5,5-difluoro-3-(trifluoromethyl)-3b,4,4a,5-tetrahydro-1H-cyclopropa[3,4]cyclopenta[1,2-c]pyrazol-1-yl)acetamide, reference compound] | – | 0.11 | 0.32 | 16 | – | –
4 | CC(C)(C#Cc1ccc(-c2ccc(Cl)c3c(N(C(=O)[C@H]4C[C@H](C(=O)O)C4)S(C)(=O)=O)nn(CC(F)(F)F)c23)c([C@H](Cc2cc(F)cc(F)c2)NC(=O)Cn2nc(C(F)(F)F)c3c2C(F)(F)[C@@H]2C[C@H]32)n1)S(C)(=O)=O [Compound 13, (1S,3r)-3-((4-chloro-7-(2-((S)-1-(2-((3bS,4aR)-5,5-difluoro-3-(trifluoromethyl)-3b,4,4a,5-tetrahydro-1H-cyclopropa[3,4]cyclopenta[1,2-c]pyrazol-1-yl)acetamido)-2-(3,5-difluorophenyl)ethyl)-6-(3-methyl-3-(methylsulfonyl)but-1-yn-1-yl)pyridin-3-yl)-1-(2,2,2-trifluoroethyl)-1H-indazol-3-yl)(methylsulfonyl)carbamoyl)cyclobutane-1-carboxylic acid] | 9 (≈ 8.22 µM) | 1 | 15 | – | – | –
5 | CC(C)(C#Cc1ccc(-c2ccc(Cl)c3c(N(C(=O)[C@H]4C[C@@H](C(=O)O)C4)S(C)(=O)=O)nn(CC(F)(F)F)c23)c([C@H](Cc2cc(F)cc(F)c2)NC(=O)Cn2nc(C(F)(F)F)c3c2C(F)(F)[C@@H]2C[C@H]32)n1)S(C)(=O)=O [Compound 14, ((1R,3s)-3-((4-chloro-7-(2-((S)-1-(2-((3bS,4aR)-5,5-difluoro-3-(trifluoromethyl)-3b,4,4a,5-tetrahydro-1H-cyclopropa[3,4]cyclopenta[1,2-c]pyrazol-1-yl)acetamido)-2-(3,5-difluorophenyl)ethyl)-6-(3-methyl-3-(methylsulfonyl)but-1-yn-1-yl)pyridin-3-yl)-1-(2,2,2-trifluoroethyl)-1H-indazol-3-yl)(methylsulfonyl)carbamoyl)cyclobutane-1-carboxylic acid)] | 9 (≈ 8.22 µM) | 1 | 8 | – | – | –
6 | CC(C)(C#Cc1ccc(-c2ccc(Cl)c3c(N(C(=O)c4ccccc4C(=O)OCOP(=O)(O)O)S(C)(=O)=O)nn(CC(F)(F)F)c23)c([C@H](Cc2cc(F)cc(F)c2)NC(=O)Cn2nc(C(F)(F)F)c3c2C(F)(F)[C@@H]2C[C@H]32)n1)S(C)(=O)=O [Compound 19, (phosphonooxy)methyl 2-((4-chloro-7-(2-((S)-1-(2-((3bS,4aR)-5,5-difluoro-3-(trifluoromethyl)-3b,4,4a,5-tetrahydro-1H-cyclopropa[3,4]cyclopenta[1,2-c]pyrazol-1-yl)acetamido)-2-(3,5-difluorophenyl)ethyl)-6-(3-methyl-3-(methylsulfonyl)but-1-yn-1-yl)pyridin-3-yl)-1-(2,2,2-trifluoroethyl)-1H-indazol-3-yl)(methylsulfonyl)carbamoyl)benzoate] | – | 2 | 75 | – | 816 (≈ 665 µM) | 487 (≈ 397 µM)
7 | CC(C)(C#Cc1ccc(-c2ccc(Cl)c3c(N(C(=O)N4CC(C(=O)O)C4)S(C)(=O)=O)nn(CC(F)(F)F)c23)c([C@H](Cc2cc(F)cc(F)c2)NC(=O)Cn2nc(C(F)(F)F)c3c2C(F)(F)[C@@H]2C[C@H]32)n1)S(C)(=O)=O [Compound 24, 1-((4-chloro-7-(2-((S)-1-(2-((3bS,4aR)-5,5-difluoro-3-(trifluoromethyl)-3b,4,4a,5-tetrahydro-1H-cyclopropa[3,4]cyclopenta[1,2-c]pyrazol-1-yl)acetamido)-2-(3,5-difluorophenyl)ethyl)-6-(3-methyl-3-(methylsulfonyl)but-1-yn-1-yl)pyridin-3-yl)-1-(2,2,2-trifluoroethyl)-1H-indazol-3-yl)(methylsulfonyl)carbamoyl)azetidine-3-carboxylic acid] | – | 1 | 100 | – | 75 (≈ 68.5 µM) | 21 (≈ 19.2 µM)
8 | CC(C)(C#Cc1ccc(-c2ccc(Cl)c3c(N(C(=O)[C@@H]4C[C@@H]4COP(=O)(O)O)S(C)(=O)=O)nn(CC(F)(F)F)c23)c([C@H](Cc2cc(F)cc(F)c2)NC(=O)Cn2nc(C(F)(F)F)c3c2C(F)(F)[C@@H]2C[C@H]32)n1)S(C)(=O)=O [Compound 11] | – | 1 | 61 | – | 401 (≈ 350 µM) | 355 (≈ 310 µM)
9 | CC(C)(C#Cc1ccc(-c2ccc(Cl)c3c(N(C(=O)C4(C(=O)O)CC4)S(C)(=O)=O)nn(CC(F)(F)F)c23)c([C@H](Cc2cc(F)cc(F)c2)NC(=O)Cn2nc(C(F)(F)F)c3c2C(F)(F)[C@@H]2C[C@H]32)n1)S(C)(=O)=O [Compound 18, 1-((4-chloro-7-(2-((S)-1-(2-((3bS,4aR)-5,5-difluoro-3-(trifluoromethyl)-3b,4,4a,5-tetrahydro-1H-cyclopropa[3,4]cyclopenta[1,2-c]pyrazol-1-yl)acetamido)-2-(3,5-difluorophenyl)ethyl)-6-(3-methyl-3-(methylsulfonyl)but-1-yn-1-yl)pyridin-3-yl)-1-(2,2,2-trifluoroethyl)-1H-indazol-3-yl)(methylsulfonyl)carbamoyl)cyclopropane-1-carboxylic acid] | – | 1 | 8 | – | 42 (≈ 38.9 µM) | 21 (≈ 19.4 µM)
